In patent US20240382556A1, “METHODS AND COMPOSITIONS FOR THE TREATMENT OF ALCOHOL DEPENDENCE” (Duke University, priority 2023, published 2024):
Residues, ends and D or L forms follow the SMILES beside them.

Key:
[1] = test system: Adult male C57/B16J mice; experiment: Drinking in the Dark (DID) mouse model of binge drinking behavior; type: in vivo
Experimental: To measure binge drinking behavior, experiments were conducted that used the Drinking in the Dark (DID) model as previously published (see, Thiele T E, Crabbe J C, Boehm S L, 2nd (2014): “Drinking in the Dark” (DID): a simple mouse model of binge-like alcohol intake. Curr Protoc Neurosci. 68: 9 49 41-49 49 12). Adult male C57/B16J mice on reverse light-dark cycle had water replaced with alcohol three hours into the dark cycle. On days 1-3 of each week (Mon-Wed), mice received 20% alcohol for 2 hrs and on day 4 (Thur) received for 4 hours.
Mice were treated with Rapastinel at dose of 30 mg/kg or saline via intraperitoneal injection (i.p.) 30 minutes prior to alcohol exposure on days 1-4 of cycle either during first cycle of DID or after first undergoing DID for 5 weeks prior to treatment on week 6 (see, FIG. 1).

[2] = test system: animal models; conditions: unlike ketamine, Moskal et al. 2017; cited from earlier work
[3] = test system: preclinical rodent models; conditions: previously shown; cited from earlier work

## C[C@@H](O)[C@H](N)C(=O)N1CCC[C@H]1C(=O)N1CCC[C@H]1C(=O)N[C@H](C(N)=O)[C@@H](C)O [Rapastinel, L-threonyl-L-prolyl-L-prolyl-L-threoninamide] (H-TPPT-NH2)
[1]; alcohol naïve mice, 1 cycle of DID, daily i.p. injection of 30 mg/kg prior to presentation of alcohol
  alcohol consumption (daily and total) compared to saline control: no effect
[1]; mice after 5 weeks of DID, 30 mg/kg i.p. 30 minutes prior to alcohol on days 1-4 of week 6, with and without removal of outliers (>90%)
  Total average weekly alcohol consumption, week 6 with treatment in comparison to weeks 1-5: reduced alcohol consumption
[2]
  negative side effects during treatment: has not been shown to produce any negative side effects
[3]
  cravings for opiates: effective in reducing cravings for opiates
